The subject of this assay is L1210 leukemia ip in BDF1 mice, survival T/C. Briefly: NCI In Vivo Anticancer Drug Screen. Data for tumor model L1210 Leukemia (intraperitoneal) in B6D2F1 (BDF1) mice. The following applies: higher = longer survival. The gist of the method: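 Read-out is survival time, reported as the treated-group measurement over the vehicle-control measurement.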
Setting [1] is: endpoint: mean survival time, dose: 100.0 mg/kg/injection, schedule: Q01DX001 (ip), vehicle: saline.
Where [2] appears, read: endpoint: mean survival time, dose: 200.0 mg/kg/injection, schedule: Q01DX001 (ip), vehicle: saline.
Where [3] appears, read: endpoint: mean survival time, dose: 400.0 mg/kg/injection, schedule: Q01DX001 (ip), vehicle: saline.
The mark [4] stands for this setting: endpoint: mean survival time, dose: 50.0 mg/kg/injection, schedule: Q01DX009 (ip), vehicle: saline with Tween-80.
[5] abbreviates: endpoint: mean survival time, dose: 100.0 mg/kg/injection, schedule: Q01DX009 (ip), vehicle: saline with Tween-80.
Where [6] appears, read: endpoint: mean survival time, dose: 100.0 mg/kg/injection, schedule: Q04DX002 (ip), vehicle: Klucel (hydroxypropylcellulose) (HPC).
Where [7] appears, read: endpoint: mean survival time, dose: 200.0 mg/kg/injection, schedule: Q01DX009 (ip), vehicle: saline with Tween-80.
[8] abbreviates: endpoint: mean survival time, dose: 200.0 mg/kg/injection, schedule: Q04DX002 (ip), vehicle: Klucel (hydroxypropylcellulose) (HPC).
The mark [9] stands for this setting: endpoint: mean survival time, dose: 100.0 mg/kg/injection, schedule: Q01DX001 (ip), vehicle: carboxymethylcellulose (CMC).
[10] abbreviates: endpoint: mean survival time, dose: 200.0 mg/kg/injection, schedule: Q01DX001 (ip), vehicle: carboxymethylcellulose (CMC).
The mark [11] stands for this setting: endpoint: mean survival time, dose: 400.0 mg/kg/injection, schedule: Q01DX001 (ip), vehicle: carboxymethylcellulose (CMC).
[12] abbreviates: endpoint: mean survival time, dose: 100.0 mg/kg/injection, schedule: Q01DX009 (ip), vehicle: Klucel (hydroxypropylcellulose) (HPC).
The mark [13] stands for this setting: endpoint: mean survival time, dose: 200.0 mg/kg/injection, schedule: Q01DX009 (ip), vehicle: Klucel (hydroxypropylcellulose) (HPC).

This note sets out measurements from PubChem BioAssay AID248 (DTP/NCI, 2004).

SMILES strings stand for the structures. Values joined by “and” are separate entries in the source; they are usually repeats but may differ in a detail not shown here. Equal values may be shown once. Toxic doses and inconclusive results are not listed.

Consider `CCOC(=N)CC(=O)OCC`, for which the T/C is, setting by setting: (endpoint: mean survival time, dose: 50.0 mg/kg/injection, schedule: Q01DX001 (ip), vehicle: saline) 101 % of control and 110 % of control; (endpoint: mean survival time, dose: 89.0 mg/kg/injection, schedule: Q01DX001 (ip), vehicle: saline) 101 % of control; under setting [1], 104 % of control and 113 % of control; (endpoint: mean survival time, dose: 133.0 mg/kg/injection, schedule: Q01DX001 (ip), vehicle: saline) 101 % of control; under setting [2], 95 % of control and 104 % of control and 231 % of control; (endpoint: mean survival time, dose: 300.0 mg/kg/injection, schedule: Q01DX001 (ip), vehicle: saline) 98 % of control. For the same molecule, the T/C under setting [3] is 95 % of control and 101 % of control.

As to `O=C1c2ccccc2C(=O)N1CCOCCOCCN1C(=O)c2ccccc2C1=O`, the T/C runs as follows: (endpoint: mean survival time, dose: 25.0 mg/kg/injection, schedule: Q01DX009 (ip), vehicle: saline with Tween-80) 108 % of control; under setting [4], 96 % of control and 92 % of control; under setting [5], 88 % of control and 92 % of control; under setting [6], 98 % of control; under setting [7], 98 % of control; under setting [8], 98 % of control. In addition, for the setting “endpoint: mean survival time, dose: 400.0 mg/kg/injection, schedule: Q04DX002 (ip), vehicle: Klucel (hydroxypropylcellulose) (HPC)”, the T/C was 98 % of control.

Turning to `C#CCOC(=O)Nc1ccc(C)cc1`, the T/C under setting [9] is 108 % of control, the T/C under setting [10] was 100 % of control and the T/C under setting [11] was 118 % of control.

As to `COC(=O)CCCCCCCC(=O)O`, the T/C under setting [12] is 94 % of control; the T/C under setting [13] was 98 % of control; the T/C (endpoint: mean survival time, dose: 400.0 mg/kg/injection, schedule: Q01DX009 (ip), vehicle: Klucel (hydroxypropylcellulose) (HPC)) is 102 % of control.

In the case of `CC(=O)OCC1OC(n2cc(C)c(=O)[nH]c2=O)C(OC(C)=O)C(OC(C)=O)C1OC(C)=O` (stereo not drawn), the T/C runs as follows: under setting [1], 94 % of control; under setting [2], 105 % of control; under setting [3], 97 % of control.

As to `O=c1c(-c2ccccc2)c(-c2ccccc2)c1=O`, the T/C is 91 % of control (endpoint: mean survival time, dose: 75.0 mg/kg/injection, schedule: Q01DX001 (ip), vehicle: saline) and 96 % of control (endpoint: mean survival time, dose: 150.0 mg/kg/injection, schedule: Q01DX001 (ip), vehicle: saline).

Take `NC(=O)C(c1ccccc1)N1CCCC1` (stereo not drawn): the T/C (endpoint: mean survival time, dose: 25.0 mg/kg/injection, schedule: Q01DX009 (ip), vehicle: saline) is 91 % of control; the T/C (endpoint: mean survival time, dose: 25.0 mg/kg/injection, schedule: Q04DX003 (ip), vehicle: saline) was 98 % of control; the T/C (endpoint: mean survival time, dose: 50.0 mg/kg/injection, schedule: Q01DX009 (ip), vehicle: saline) was 94 % of control; the T/C (endpoint: mean survival time, dose: 50.0 mg/kg/injection, schedule: Q04DX003 (ip), vehicle: saline) was 97 % of control; the T/C (endpoint: mean survival time, dose: 100.0 mg/kg/injection, schedule: Q01DX009 (ip), vehicle: saline) is 91 % of control; the T/C (endpoint: mean survival time, dose: 100.0 mg/kg/injection, schedule: Q04DX003 (ip), vehicle: saline) was 95 % of control.

Take `CCCCCCN(CCCCCC)CP(=S)(CN(CCCCCC)CCCCCC)CN(CCCCCC)CCCCCC`: the T/C is, setting by setting: (endpoint: mean survival time, dose: 100.0 mg/kg/injection, schedule: Q01DX001 (ip), vehicle: saline with Tween-80) 99 % of control; (endpoint: mean survival time, dose: 200.0 mg/kg/injection, schedule: Q01DX001 (ip), vehicle: saline with Tween-80) 104 % of control.

For the molecule `C1CC2CCC(N3CCOCC3)C(C1)O2` (stereo not drawn), the T/C is 102 % of control under setting [4], 102 % of control under setting [5] and 102 % of control under setting [7].

In the case of `CN(C)c1ccc(/C=C2\C=Cc3ccccc32)cc1F`, the T/C under setting [9] is 92 % of control; the T/C under setting [5] was 100 % of control; the T/C under setting [10] was 95 % of control; the T/C under setting [7] is 94 % of control; the T/C under setting [11] is 97 % of control; the T/C (endpoint: mean survival time, dose: 400.0 mg/kg/injection, schedule: Q01DX009 (ip), vehicle: saline with Tween-80) is 98 % of control.

In the case of `CC1CC(=O)c2c(cc3c(-c4c(O)cc(O)c5c(O)c6c(cc45)OC(C)CC6=O)c(O)cc(O)c3c2O)O1` (stereo not drawn), the T/C is, setting by setting: (endpoint: mean survival time, dose: 100.0 mg/kg/injection, schedule: Q04DX003 (ip), vehicle: carboxymethylcellulose (CMC)) 103 % of control; (endpoint: mean survival time, dose: 200.0 mg/kg/injection, schedule: Q04DX003 (ip), vehicle: carboxymethylcellulose (CMC)) 92 % of control.

Take `C[N+](C)(C)c1ccc(F)c([N+](=O)[O-])c1`: the T/C is, setting by setting: (endpoint: mean survival time, dose: 50.0 mg/kg/injection, schedule: Q01DX005 (ip), vehicle: Klucel (hydroxypropylcellulose) (HPC)) 95 % of control; (endpoint: mean survival time, dose: 50.0 mg/kg/injection, schedule: Q01DX009 (ip), vehicle: Klucel (hydroxypropylcellulose) (HPC)) 96 % of control; (endpoint: mean survival time, dose: 100.0 mg/kg/injection, schedule: Q01DX005 (ip), vehicle: Klucel (hydroxypropylcellulose) (HPC)) 98 % of control; under setting [12], 96 % of control; under setting [6], 90 % of control; (endpoint: mean survival time, dose: 200.0 mg/kg/injection, schedule: Q01DX005 (ip), vehicle: Klucel (hydroxypropylcellulose) (HPC)) 103 % of control. For the same molecule, the T/C is 96 % of control under setting [13] and 96 % of control under setting [8].

Turning to `ONc1ccccn1`, the T/C runs as follows: under setting [1], 95 % of control; under setting [2], 95 % of control.

Regarding `O=C(Nc1cc([N+](=O)[O-])ccc1F)Oc1cccc(C(F)(F)F)c1`, the T/C runs as follows: (endpoint: mean survival time, dose: 100.0 mg/kg/injection, schedule: Q04DX003 (ip), vehicle: Klucel (hydroxypropylcellulose) (HPC)) 89 % of control; (endpoint: mean survival time, dose: 200.0 mg/kg/injection, schedule: Q04DX003 (ip), vehicle: Klucel (hydroxypropylcellulose) (HPC)) 97 % of control; (endpoint: mean survival time, dose: 400.0 mg/kg/injection, schedule: Q04DX003 (ip), vehicle: Klucel (hydroxypropylcellulose) (HPC)) 95 % of control.

With `CCCCS.[Pb]`, the T/C (endpoint: mean survival time, dose: 100.0 mg/kg/injection, schedule: Q04DX003 (ip), vehicle: saline with Tween-80) was 95 % of control; the T/C (endpoint: mean survival time, dose: 200.0 mg/kg/injection, schedule: Q04DX003 (ip), vehicle: saline with Tween-80) was 95 % of control; the T/C (endpoint: mean survival time, dose: 400.0 mg/kg/injection, schedule: Q04DX003 (ip), vehicle: saline with Tween-80) was 96 % of control.

Take `Cc1cccc(C(=O)N(C)C(c2ccco2)P(=O)(c2ccccc2)c2ccccc2)c1` (stereo not drawn): the T/C was 103 % of control (endpoint: mean survival time, dose: 50.0 mg/kg/injection, schedule: Q01DX001 (ip), vehicle: carboxymethylcellulose (CMC)); 94 % of control and 92 % of control (endpoint: mean survival time, dose: 50.0 mg/kg/injection, schedule: Q01DX009 (ip), vehicle: carboxymethylcellulose (CMC)); 104 % of control under setting [9]; 94 % of control and 95 % of control (endpoint: mean survival time, dose: 100.0 mg/kg/injection, schedule: Q01DX009 (ip), vehicle: carboxymethylcellulose (CMC)); 95 % of control under setting [10]; 89 % of control (endpoint: mean survival time, dose: 200.0 mg/kg/injection, schedule: Q01DX009 (ip), vehicle: carboxymethylcellulose (CMC)).

Regarding `CC(=O)O[C@]1(C(C)=O)CC[C@H]2[C@@H]3C[C@H](C)C4=CC(=O)C=C[C@]4(C)[C@@]3(F)[C@@H](O)C[C@@]21C`, the T/C is 96 % of control and 98 % of control (endpoint: mean survival time, dose: 12.5 mg/kg/injection, schedule: Q01DX010 (sc), vehicle: steriod suspending solution); 103 % of control and 104 % of control and 111 % of control (endpoint: mean survival time, dose: 25.0 mg/kg/injection, schedule: Q01DX009 (sc), vehicle: steriod suspending solution); 98 % of control and 101 % of control (endpoint: mean survival time, dose: 25.0 mg/kg/injection, schedule: Q01DX010 (sc), vehicle: steriod suspending solution); 93 % of control and 95 % of control and 111 % of control (endpoint: mean survival time, dose: 50.0 mg/kg/injection, schedule: Q01DX009 (sc), vehicle: steriod suspending solution); 95 % of control and 107 % of control (endpoint: mean survival time, dose: 50.0 mg/kg/injection, schedule: Q01DX010 (sc), vehicle: steriod suspending solution); 98 % of control (2×) and 111 % of control (endpoint: mean survival time, dose: 100.0 mg/kg/injection, schedule: Q01DX009 (sc), vehicle: steriod suspending solution). The T/C (endpoint: mean survival time, dose: 100.0 mg/kg/injection, schedule: Q01DX010 (sc), vehicle: steriod suspending solution) was 98 % of control and 107 % of control; the T/C (endpoint: mean survival time, dose: 200.0 mg/kg/injection, schedule: Q01DX009 (sc), vehicle: steriod suspending solution) is 95 % of control (2×) and 111 % of control; the T/C (endpoint: median survival time, dose: 25.0 mg/kg/injection, schedule: Q01DX009 (sc), vehicle: steriod suspending solution) was 106 % of control; the T/C (endpoint: median survival time, dose: 50.0 mg/kg/injection, schedule: Q01DX009 (sc), vehicle: steriod suspending solution) is 100 % of control; the T/C (endpoint: median survival time, dose: 100.0 mg/kg/injection, schedule: Q01DX009 (sc), vehicle: steriod suspending solution) is 100 % of control; the T/C (endpoint: median survival time, dose: 200.0 mg/kg/injection, schedule: Q01DX009 (sc), vehicle: steriod suspending solution) was 100 % of control.
